Test results as given in patent US20130315830A1, “PSMA as a BioMarker for Androgen Activity in Prostate Cancer” (Cornell University, priority 2012, published 2013).

System: LAPC-4, expressing wild-type AR

## C[C@]12CCC(=O)C[C@@H]1CC[C@@H]1[C@@H]2CC[C@]2(C)[C@@H](O)CC[C@@H]12 [DHT, 5α-dihydrotestosterone]
  PSMA expression: low level of PSMA
